Entries after “also recorded” stand apart in the source; their conditions may differ.
How the values were obtained:
A2780 cells = assay: Tumor burden in mice bearing platinum-sensitive cells treated with carboplatin; type: in vivo, Athymic nude mice; details: 25 mg/kg carboplatin weekly IP
Procedure: (§1) FIG. 3. Carboplatin indirectly regulates mesothelial VCAM-1 expression by affecting tumor burden. Athymic nude mice were given an intraperitoneal (IP) injection of A2780 (n=3 per time point) or A2780Cis (n=3 per time point) cells or saline (control, n=2). One week following tumor initiation a group of mice was imaged to obtain baseline values; the remaining mice were treated with 25 mg/kg carboplatin weekly. (A) SPECT/CT images were collected weekly starting 1 week after tumor initiation (week 0); weeks 0, 1 and 2 indicate that time after carboplatin treatment. […] Heart and omentum were removed from each cohort of mice weekly post-carboplatin treatment (x-axis, 0=1 week tumor, no treatment) and the percent injected dose of radioactivity per gram of tissue determined as described above (see FIG. 2). n=3 for each cohort, C=control animals. […]
(§2) To assess VCAM-1 as a marker of chemosensitivity, two cohorts of mice were injected with an isogenic paired cell line with one being resistant and the other sensitive to platinum: The first cohort (n=9) was injected with A2780, platinum sensitive cell line and the second (n=9) with A2780Cis platinum resistant cell line. […] After each timepoint, n=3 animals from each cohort were sacrificed and VCAM-In^111 uptake quantified via biodistribution as described above.

[1] = cited from earlier work
A2780Cis cells = assay: Tumor burden in A2780Cis-tumored mice treated with carboplatin; type: in vivo, Athymic nude mice; details: mice with platinum-resistant A2780Cis tumors, 25 mg/kg carboplatin weekly IP
Procedure: as §1, §2

[2] = test system: VCAM-1 expression in mesothelial cells (LP9); assay: Western analysis of VCAM-1 expression in mesothelial cells (LP9) treated with carboplatin; type: cell-based; details: LP9 human mesothelial cells; up to 1 μg/ml carboplatin for 24 hours

For `N.N.O=C([O-])C1(C(=O)[O-])CCC1.[Pt+2]` [carboplatin, cis-Diamine(1,1-cyclobutanedicarboxylato)platinum(II)], the “Tumor burden following carboplatin treatment” value (A2780 cells) is listed as “decreases”, the Solubility in water [1] is listed as 25 mM and the “Tumor growth / tumor burden under carboplatin” value (A2780Cis cells) is listed as “neither was altered; also recorded: continued to grow”. For the same molecule, the “Change in VCAM-1 expression (Western)” value [2] was “no change”.

— patent publication US9606123B2, “Compositions and methods for diagnosing and monitoring ovarian cancer progression and treatment” (University of Virginia Patent Foundation, priority 2013, dated 2017)
